Data published in publication PMC3501516, “Anti-Diabetic Efficacy and Impact on Amino Acid Metabolism of GRA1, a Novel Small-Molecule Glucagon Receptor Antagonist” (PLoS ONE, 2012).

Columns and labels:
[1] = test system: primary human hepatocytes; assay: Glucagon-stimulated glycogenolysis in primary human hepatocytes; assay type: cell-based; settings: 1 h
Experimental: Figure 1 GRA1 inhibits glucagon-mediated glycogenolysis in vitro and ex-vivo. (A) The chemical structure of GRA1. (B) Dose-dependent inhibition of glucagon-stimulated glycogenolysis in human hepatocytes. The cells were pretreated for 3 h with 200 nM insulin and then challenged with 2 nM glucagon with vehicle (Veh, medium with 1% DMSO) or 0.3–10 µM GRA1. Glycogen content was measured after incubating for 1 h. *p<0.05 and **p<0.01 vs. glucagon+vehicle alone. (C) Inhibition of glucagon-stimulated glycogenolysis in perfused liver prepared from the hGCGR mouse. Livers were perfused with Ringers solution containing 6.7 mM [2-^13C]pyruvate while ^13C content (indicative of accumulated [^13C]glycogen) was monitored dynamically by nuclear magnetic resonance imaging. At time = −22 min, 0.1–3.0 uM GRA1 or vehicle was added to the perfusate; 50 pM glucagon or vehicle was added at time 0. The data are means ±SEM.
Transfected Chinese hamster ovary (CHO) cell lines were acquired and maintained as previously described, [20]. These included separate cell lines stably expressing human GCGR (hGCGR), mouse GCGR, rhesus GGCR, glucose-dependent insulinotropic peptide receptor (GIPR), GLP-1 receptor (GLP-1R), pituitary adenylate cyclase-activating polypeptide receptor type 1 (PAC1R), and vasoactive adenylate cyclase-activating polypeptide receptor type 2 (VPAC2R). […]

[2] = molecular target: T1, mouse GCGR (Mus musculus, UniProt Q61606); assay: Inhibition of glucagon-stimulated cAMP production in CHO cells expressing mouse GCGR; assay type: cell-based
T1 construct: expressed in transfected cells
Experimental: Transfected Chinese hamster ovary (CHO) cell lines were acquired and maintained as previously described [17], [20]. These included separate cell lines stably expressing human GCGR (hGCGR), mouse GCGR, rhesus GGCR, glucose-dependent insulinotropic peptide receptor (GIPR), GLP-1 receptor (GLP-1R), pituitary adenylate cyclase-activating polypeptide receptor type 1 (PAC1R), and vasoactive adenylate cyclase-activating polypeptide receptor type 2 (VPAC2R). […] Functional antagonism was assayed by measuring the production of cAMP in intact CHO cells stimulated by agonists specific for their cognate receptors (i.e., glucagon for GCGR-expressing cell lines, GIP for the GIPR-expressing line, etc.).

[3] = molecular target: T2, human GCGR (hGCGR) (Homo sapiens, UniProt P47871); assay: Inhibition of 125I-glucagon binding to hGCGR in membranes of CHO cells expressing hGCGR; settings: CHO cell membranes
T2 construct: expressed in transfected cells
From the text: Transfected Chinese hamster ovary (CHO) cell lines were acquired and maintained as previously described, [20]. These included separate cell lines stably expressing human GCGR (hGCGR), mouse GCGR, rhesus GGCR, glucose-dependent insulinotropic peptide receptor (GIPR), GLP-1 receptor (GLP-1R), pituitary adenylate cyclase-activating polypeptide receptor type 1 (PAC1R), and vasoactive adenylate cyclase-activating polypeptide receptor type 2 (VPAC2R). Inhibition of glucagon binding to hGCGR was assayed in cell membranes prepared from the line of CHO cells that expressed the hGCGR. Functional antagonism was assayed by measuring the production of cAMP in intact CHO cells stimulated by agonists specific for their cognate receptors (i.e., glucagon for GCGR-expressing cell lines, GIP for the GIPR-expressing line, etc.). Primary human hepatocytes were obtained from In Vitro Technologies (Baltimore, MD) and glucagon-stimulated glycogenolysis was studied in these as previously described.

T1 sequence (Q61606 27-485): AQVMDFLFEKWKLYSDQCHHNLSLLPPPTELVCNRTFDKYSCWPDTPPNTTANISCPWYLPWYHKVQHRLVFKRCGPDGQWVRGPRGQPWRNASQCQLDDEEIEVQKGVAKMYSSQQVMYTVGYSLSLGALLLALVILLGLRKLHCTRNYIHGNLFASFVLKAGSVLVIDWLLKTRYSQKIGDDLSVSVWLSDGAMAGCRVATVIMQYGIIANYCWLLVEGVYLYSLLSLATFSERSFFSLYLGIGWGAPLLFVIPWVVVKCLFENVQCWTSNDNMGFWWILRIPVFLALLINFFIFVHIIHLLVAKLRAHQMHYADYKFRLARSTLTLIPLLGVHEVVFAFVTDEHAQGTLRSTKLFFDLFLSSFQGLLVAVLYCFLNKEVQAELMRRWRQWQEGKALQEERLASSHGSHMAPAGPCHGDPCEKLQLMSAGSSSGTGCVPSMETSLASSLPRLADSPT
T2 sequence (P47871 26-477): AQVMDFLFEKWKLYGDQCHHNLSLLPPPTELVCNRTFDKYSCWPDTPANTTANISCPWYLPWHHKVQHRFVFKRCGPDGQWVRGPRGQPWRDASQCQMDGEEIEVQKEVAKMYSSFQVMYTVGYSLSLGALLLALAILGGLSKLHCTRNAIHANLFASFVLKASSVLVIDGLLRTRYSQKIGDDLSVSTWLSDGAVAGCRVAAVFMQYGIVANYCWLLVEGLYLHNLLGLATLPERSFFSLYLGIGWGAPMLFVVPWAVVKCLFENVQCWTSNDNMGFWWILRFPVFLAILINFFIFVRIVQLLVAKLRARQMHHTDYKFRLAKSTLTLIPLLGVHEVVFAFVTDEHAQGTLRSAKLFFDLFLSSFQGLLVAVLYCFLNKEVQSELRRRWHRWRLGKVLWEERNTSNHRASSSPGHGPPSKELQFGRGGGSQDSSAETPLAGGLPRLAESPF

Question: How did the “Inhibition of glucagon-induced glycogen loss” value ([1]; 10 µM GRA1, 2 nM glucagon) turn out when `COc1ccc2cc(-c3cc(-c4cc(C(F)(F)F)ccc4F)nn3[C@@H](C)c3ccc(C(=O)NCCC(=O)O)cc3)ccc2c1` [GRA1, N-[4-((1S)-1-{3-(2-fluoro-5-trifluoromethylphenyl)-5-[6-methoxynaphth-2-yl]-1H-pyrazol-1-yl}ethyl)benzoyl]-β-alanine] was run?
Answer: The value was “completely prevented”.

Question: What about the inhibition at 0.3 µM ([1]; Homo sapiens, Hepatocyte, 0.3 µM GRA1, 2 nM glucagon, read-out: Inhibition of glucagon-induced glycogen loss) of the same compound?
Answer: The inhibition at 0.3 µM was about 50%.

Question: And the IC50 [2]?
Answer: Its IC50 is 178 nM.

Question: What about the IC50 [3] of the same compound?
Answer: The IC50 was 4 nM.
